In the NIST ThermoML archive (doi:10.1021/je034243t):
± gives the expanded uncertainty stated by the source.

Assay: xn = mol fraction of the nth substance listed
Conditions: 291.15 K, Liquid, Vibrating tube method

O=C=O [carbon dioxide] + CCO
Conditions | mass density [kg/m3]
x1 = 0.184 | 819.5 ± 0.4
x1 = 0.227 | 826.4 ± 0.4
x1 = 0.304 | 836.8 ± 0.4
x1 = 0.455 | 855.1 ± 0.3
x1 = 0.728 | 865.9 ± 0.3
x1 = 0.838 | 856.5 ± 0.5
x1 = 0.951 | 828 ± 0.7
x1 = 0.983 | 811.3 ± 1.2
x1 = 0.996 | 800.6 ± 1.7
